Experiments:
Carbonic anhydrase 2 = Carbonic anhydrase 2 (Homo sapiens, UniProt P00918); assay: DRUGMATRIX: Carbonic Anhydrase II enzyme inhibition (substrate: 4-Nitrophenyl acetate (4-NPA)); assay type: tissue-based, Erythrocyte; conditions: erythrocyte; Not Active = under 50% inhibition at 10 µM
Acetylcholinesterase = Acetylcholinesterase (Homo sapiens, UniProt P22303); assay: DRUGMATRIX: Acetylcholinesterase enzyme inhibition (substrate: acetylthiocholine); assay type: cell-based, HEK293; conditions: Not Active = under 50% inhibition at 10 µM
[1] = molecular target: T1, Muscarinic acetylcholine receptor M5 (Homo sapiens, UniProt P08912); assay type: cell membranes, CHO-K1, Membrane; further: in other assays of this panel Not Active means under 50% inhibition at 10 µM
T1 sequence (P08912 whole entry): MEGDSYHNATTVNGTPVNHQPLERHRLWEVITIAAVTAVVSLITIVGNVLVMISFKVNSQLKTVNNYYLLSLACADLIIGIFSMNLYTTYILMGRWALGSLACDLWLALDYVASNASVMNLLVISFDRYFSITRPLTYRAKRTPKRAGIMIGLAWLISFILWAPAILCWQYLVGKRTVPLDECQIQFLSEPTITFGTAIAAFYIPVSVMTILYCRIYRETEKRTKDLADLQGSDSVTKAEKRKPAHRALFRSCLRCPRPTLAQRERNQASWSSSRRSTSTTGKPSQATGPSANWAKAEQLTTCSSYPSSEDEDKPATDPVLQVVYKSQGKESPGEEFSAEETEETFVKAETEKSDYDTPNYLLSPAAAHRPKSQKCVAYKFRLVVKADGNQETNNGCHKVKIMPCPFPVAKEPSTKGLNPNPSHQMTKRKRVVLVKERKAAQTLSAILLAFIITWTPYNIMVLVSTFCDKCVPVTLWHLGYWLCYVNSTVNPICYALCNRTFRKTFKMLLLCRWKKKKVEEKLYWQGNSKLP

Cytochrome P450 3A4 = Cytochrome P450 3A4 (Homo sapiens, UniProt P08684); conditions: bti-tn-5b1-4; further: in other assays of this panel Not Active means under 50% inhibition at 10 µM
[2] = molecular target: T2, Alpha-2A adrenergic receptor (Homo sapiens, UniProt P08913); assay type: cell membranes, Sf9, Membrane; further: in other assays of this panel Not Active means under 50% inhibition at 10 µM
T2 sequence (P08913 whole entry): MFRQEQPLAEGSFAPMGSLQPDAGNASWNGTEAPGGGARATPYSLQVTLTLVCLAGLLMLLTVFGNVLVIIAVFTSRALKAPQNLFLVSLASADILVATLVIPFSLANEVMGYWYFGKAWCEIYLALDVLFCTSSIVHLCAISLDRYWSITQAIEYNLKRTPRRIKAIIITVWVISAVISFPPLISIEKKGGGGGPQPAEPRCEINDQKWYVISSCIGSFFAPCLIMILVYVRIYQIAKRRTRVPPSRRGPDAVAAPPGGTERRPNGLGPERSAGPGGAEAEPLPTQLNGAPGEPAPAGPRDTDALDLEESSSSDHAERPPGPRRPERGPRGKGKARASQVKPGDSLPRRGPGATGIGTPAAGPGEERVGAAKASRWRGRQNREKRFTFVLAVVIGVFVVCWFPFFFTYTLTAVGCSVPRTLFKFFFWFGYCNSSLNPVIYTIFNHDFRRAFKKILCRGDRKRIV

Acetylcholinesterase, sequence (P22303 whole entry): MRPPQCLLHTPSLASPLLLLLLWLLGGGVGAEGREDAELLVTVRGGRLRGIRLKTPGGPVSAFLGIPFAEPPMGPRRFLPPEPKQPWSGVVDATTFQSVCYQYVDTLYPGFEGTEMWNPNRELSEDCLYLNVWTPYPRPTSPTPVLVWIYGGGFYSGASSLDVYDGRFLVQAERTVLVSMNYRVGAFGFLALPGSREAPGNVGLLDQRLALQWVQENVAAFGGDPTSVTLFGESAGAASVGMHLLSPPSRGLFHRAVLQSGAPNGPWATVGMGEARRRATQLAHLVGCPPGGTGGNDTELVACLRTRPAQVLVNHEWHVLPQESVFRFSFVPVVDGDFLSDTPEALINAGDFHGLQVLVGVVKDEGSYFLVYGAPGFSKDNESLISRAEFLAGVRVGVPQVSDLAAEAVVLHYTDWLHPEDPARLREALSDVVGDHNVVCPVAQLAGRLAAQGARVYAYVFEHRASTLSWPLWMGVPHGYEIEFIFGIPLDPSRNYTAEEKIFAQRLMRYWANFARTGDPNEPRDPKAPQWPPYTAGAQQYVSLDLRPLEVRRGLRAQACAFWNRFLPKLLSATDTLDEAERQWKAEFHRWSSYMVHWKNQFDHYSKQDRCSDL
Cytochrome P450 3A4, sequence (P08684 whole entry): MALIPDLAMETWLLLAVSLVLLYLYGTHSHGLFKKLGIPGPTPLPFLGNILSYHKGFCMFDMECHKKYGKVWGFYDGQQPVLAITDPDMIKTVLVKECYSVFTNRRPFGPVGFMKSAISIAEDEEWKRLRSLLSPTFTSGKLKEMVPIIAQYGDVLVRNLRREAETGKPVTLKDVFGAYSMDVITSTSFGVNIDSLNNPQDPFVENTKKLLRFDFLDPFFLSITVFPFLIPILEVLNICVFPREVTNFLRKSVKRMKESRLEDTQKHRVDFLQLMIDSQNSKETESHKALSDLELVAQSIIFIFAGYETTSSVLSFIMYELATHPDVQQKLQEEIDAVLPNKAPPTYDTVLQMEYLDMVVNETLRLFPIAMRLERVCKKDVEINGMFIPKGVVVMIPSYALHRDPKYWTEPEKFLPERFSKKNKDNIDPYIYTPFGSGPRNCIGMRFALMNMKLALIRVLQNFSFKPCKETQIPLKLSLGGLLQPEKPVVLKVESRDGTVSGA

Row | Compound | IC50 (Carbonic anhydrase 2) | IC50 (Acetylcholinesterase; hek293) | IC50 ([1]; cho-k1) | IC50 (Cytochrome P450 3A4) | Ki (Cytochrome P450 3A4) | IC50 ([2]; sf9) | also measured
1 | CC(=N)S [THIOACETAMIDE] | Not Active | Not Active | Not Active | Not Active | Not Active | Not Active | 
2 | O=C1C[C@@H]2OCC=C3CN4CC[C@]56c7ccccc7N1[C@H]5[C@H]2[C@H]3C[C@H]46 [STRYCHNINE] | Not Active | Not Active | Not Active | Not Active | Not Active | Not Active | 
3 | Nc1ccc(S(=O)(=O)NC(=O)c2ccccc2)cc1 [SULFABENZAMIDE] | Not Active | Not Active | Not Active | Not Active | Not Active | Not Active | 
4 | CC(=O)OCC(COC(C)=O)OC(C)=O [TRIACETIN] | Not Active | Not Active | Not Active | Not Active | Not Active | Not Active | 
5 | CCCCC(=O)N(Cc1ccc(-c2ccccc2-c2nnn[nH]2)cc1)[C@H](C(=O)O)C(C)C | Not Active | Not Active | Not Active | Not Active | Not Active | Not Active | 
6 | OCCOCCN1CCN(C2=Nc3ccccc3Sc3ccccc32)CC1 [QUETIAPINE] | Not Active | Not Active |  | Not Active | Not Active |  | 
7 | CC1CCC(NC(=O)N(CCCl)N=O)CC1 (centres undefined) [SEMUSTINE] | Not Active | Not Active | Not Active | Not Active | Not Active |  | IC50 ([2]; read-out: IC50): 4.81 µM; Ki ([2]; read-out: Ki): 1.8 µM
8 | Oc1ccc2c3c1O[C@H]1[C@@H](O)CC[C@@]4(O)[C@@H](C2)N(CC2CCC2)CC[C@]314 [NALBUPHINE] | Not Active | Not Active | Not Active |  |  | Not Active | 
9 | Clc1ccc(COC(Cn2ccnc2)c2ccc(Cl)cc2Cl)c(Cl)c1 (centres undefined) [MICONAZOLE] | Not Active |  | Not Active |  |  |  | IC50 (Acetylcholinesterase; read-out: IC50): 18.7 µM; IC50 ([2]; read-out: IC50): 3.97 µM; Ki ([2]; read-out: Ki): 1.49 µM
10 | O=C(O)CCCCC1CCSS1 (stereo not drawn) [LIPOIC ACID, ALPHA] | Not Active | Not Active | Not Active | Not Active | Not Active | Not Active | 
11 | CCCCCCCCNC(C)C(O)c1ccc(SC(C)C)cc1 (centres undefined) [SULOCTIDIL] | Not Active | Not Active |  | Not Active | Not Active |  | IC50 ([1]; read-out: IC50): 4.49 µM; Ki ([1]; read-out: Ki): 3.22 µM; IC50 ([2]; read-out: IC50): 2.02 µM; Ki ([2]; read-out: Ki): 0.759 µM
12 | COC(=O)[C@H]1[C@H]2C[C@@H]3c4[nH]c5cc(OC)ccc5c4CCN3C[C@H]2C[C@@H](OC(=O)c2cc(OC)c(OC)c(OC)c2)[C@@H]1OC [RESERPINE] | Not Active | Not Active | Not Active | Not Active | Not Active | Not Active | 
13 | O=c1[nH]c(=O)n(C2CCCO2)cc1F (centres undefined) [TEGAFUR] | Not Active | Not Active | Not Active | Not Active | Not Active | Not Active | 
14 | CC(C)NC[C@H](O)COc1cccc2ccccc12 [LEVOPROPRANOLOL] | Not Active | Not Active | Not Active | Not Active | Not Active | Not Active | 
15 | CN1[C@@H]2CC[C@H]1C[C@@H](OC(c1ccccc1)c1ccccc1)C2 [BENZTROPINE] | Not Active | Not Active |  | Not Active | Not Active |  | 
16 | Cc1ccc(C(=O)c2ccc(CC(=O)O)n2C)cc1 [TOLMETIN] | Not Active | Not Active | Not Active | Not Active | Not Active | Not Active | 
17 | C[S+]([O-])c1ccc(-c2nc(-c3ccncc3)c(-c3ccc(F)cc3)[nH]2)cc1 (centres undefined) [SB-203580] | Not Active | Not Active | Not Active | Not Active | Not Active | Not Active | 
18 | CN1CCN(C2=Nc3cc(Cl)ccc3Nc3ccccc32)CC1 [CLOZAPINE] | Not Active | Not Active |  |  |  |  | 
19 | C[C@]12C=CC(=O)C=C1CC[C@@H]1[C@@H]2C(=O)C[C@@]2(C)[C@H]1CC[C@]2(O)C(=O)CO [PREDNISONE] | Not Active | Not Active | Not Active |  |  | Not Active | 
20 | CC(C)NC[C@@H](O)COc1cccc2ccccc12 [DEXPROPRANOLOL] | Not Active | Not Active | Not Active | Not Active | Not Active | Not Active | 
21 | CN1CCN(CCCN2c3ccccc3Sc3ccc(C(F)(F)F)cc32)CC1 [TRIFLUOPERAZINE] | Not Active | Not Active | Not Active |  |  | Not Active | 
22 | O=C(O)COc1ccc(C(=O)c2cccs2)c(Cl)c1Cl | Not Active | Not Active | Not Active | Not Active | Not Active | Not Active | 
23 | C[N+](C)(C)CCOC(=O)CCC(=O)OCC[N+](C)(C)C.[Cl-].[Cl-] [SUCCINYLCHOLINE CHLORIDE] | Not Active | Not Active | Not Active | Not Active | Not Active | Not Active | 
24 | TRANSPLATIN | Not Active | Not Active |  | Not Active | Not Active | Not Active | Ki (Carbonic anhydrase 2): Not Active; Ki (Acetylcholinesterase; hek293): Not Active; IC50 ([1]; cho-k1, read-out: IC50): 5.93 µM; Ki ([1]; cho-k1, read-out: Ki): 4.26 µM; Ki ([2]; sf9): Not Active
25 | C[C@@](Cc1ccc(O)c(O)c1)(NN)C(=O)O.O [CARBIDOPA] | Not Active | Not Active | Not Active | Not Active | Not Active | Not Active | 
26 | ZIRCONIUM(IV) CHLORIDE | Not Active | Not Active | Not Active | Not Active | Not Active | Not Active | Ki (Carbonic anhydrase 2): Not Active; Ki (Acetylcholinesterase; hek293): Not Active; Ki ([1]; cho-k1): Not Active; Ki ([2]; sf9): Not Active
27 | CN(C)C(=O)C(CCN1CCC(O)(c2ccc(Cl)cc2)CC1)(c1ccccc1)c1ccccc1 [LOPERAMIDE] | Not Active | Not Active | Not Active | Not Active | Not Active | Not Active | 
28 | O=C(O)c1ccccc1O [SALICYLIC ACID] | Not Active | Not Active | Not Active | Not Active | Not Active | Not Active | 

From ChEMBL document CHEMBL1909046, “DrugMatrix in vitro pharmacology data”
